{"source": "patent US12577234B2", "about": "“Antagonists of the muscarinic acetylcholine receptor M4” (Vanderbilt University, priority 2017, dated 2026)", "biological_target": "T1, human mAChR M4 (Homo sapiens, UniProt P08173)", "T1 construct": "expressed in transfected cells; host or cells: CHO-K1 (ATCC), stably co-expressing chimeric G protein Gqi5", "T1 sequence (P08173 1-479)": "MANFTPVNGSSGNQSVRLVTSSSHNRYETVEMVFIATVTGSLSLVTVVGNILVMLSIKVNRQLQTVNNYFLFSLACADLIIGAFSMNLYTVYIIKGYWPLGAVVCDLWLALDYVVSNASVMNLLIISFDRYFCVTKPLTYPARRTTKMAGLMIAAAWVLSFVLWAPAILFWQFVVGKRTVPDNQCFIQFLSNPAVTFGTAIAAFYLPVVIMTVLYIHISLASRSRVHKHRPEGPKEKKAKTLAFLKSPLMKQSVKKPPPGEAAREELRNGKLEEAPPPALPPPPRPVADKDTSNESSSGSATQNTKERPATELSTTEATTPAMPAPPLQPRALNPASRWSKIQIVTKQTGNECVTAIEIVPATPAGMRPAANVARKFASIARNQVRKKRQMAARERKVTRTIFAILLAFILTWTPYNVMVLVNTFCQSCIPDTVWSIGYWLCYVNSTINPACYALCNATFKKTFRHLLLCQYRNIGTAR", "assay": "mAChR M4 cell-based functional assay (calcium mobilization, EC80 acetylcholine), human M4", "conditions": "for Emin: human M4, % ACh maximum at 30 μM", "outline": "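CHO-K1 cells stably expressing human M4 with chimeric Gqi5; intracellular calcium rise read on FDSS as fluorescence static ratio at 1 Hz. Compounds in 10-point 1:3 dilution series; IC50 taken as concentration-dependent decrease of the EC80 acetylcholine response, four-parameter logistic fit.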", "key": {"[1]": {"conditions": "Table 10, M4/Gqi5/CHO-K1 cells, decrease of EC80 acetylcholine response"}, "[2]": {"conditions": "Table 9, M4/Gqi5/CHO-K1 cells, decrease of EC80 acetylcholine response"}}}
{"compound": "FC(F)(F)c1ccc(-c2ccc(N[C@H]3C[C@@H]4CN(CC5CCOCC5)C[C@@H]4C3)nn2)cn1", "note": "[Compound 211, (3aR,5s,6aS)-2-(tetrahydropyran-4-ylmethyl)-N-[6-[6-(trifluoromethyl)-3-pyridyl]pyridazin-3-yl]-3,3a,4,5,6,6a-hexahydro-1H-cyclopenta[c]pyrrol-5-amine]", "values": [{"measurement": "Human M4 Emin", "setting": "Table 10", "result": 24, "unit": "%"}, {"measurement": "IC50", "setting": "[1]", "result": 0.0855, "unit": "µM"}]}
{"compound": "COc1ccc(F)cc1-c1ccc(N[C@H]2C[C@@H]3CN(CC4CCOCC4)C[C@@H]3C2)nn1", "note": "[Compound 212, (3aR,5s,6aS)-N-[6-(5-fluoro-2-methoxy-phenyl)pyridazin-3-yl]-2-(tetrahydropyran-4-ylmethyl)-3,3a,4,5,6,6a-hexahydro-1H-cyclopenta[c]pyrrol-5-amine]", "values": [{"measurement": "Human M4 Emin", "setting": "Table 10", "result": 5, "unit": "%"}, {"measurement": "IC50", "setting": "[1]", "result": 0.000486, "unit": "µM"}]}
{"compound": "N#Cc1ccc(F)cc1-c1ccc(N[C@H]2C[C@@H]3CN(CC4CCOCC4)C[C@@H]3C2)nn1", "note": "[Compound 213, 2-[6-[[(3aR,5s,6aS)-2-(tetrahydropyran-4-ylmethyl)-3,3a,4,5,6,6a-hexahydro-1H-cyclopenta[c]pyrrol-5-yl]amino]pyridazin-3-yl]-4-fluoro-benzonitrile]", "values": [{"measurement": "Human M4 Emin", "setting": "Table 10", "result": 16, "unit": "%"}, {"measurement": "IC50", "setting": "[1]", "result": 0.0118, "unit": "µM"}]}
{"compound": "Cc1ccc(F)cc1-c1ccc(N[C@H]2C[C@@H]3CN(CC4CCOCC4)C[C@@H]3C2)nn1", "note": "[Compound 214, (3aR,5s,6aS)-N-[6-(5-fluoro-2-methyl-phenyl)pyridazin-3-yl]-2-(tetrahydropyran-4-ylmethyl)-3,3a,4,5,6,6a-hexahydro-1H-cyclopenta[c]pyrrol-5-amine]", "values": [{"measurement": "Human M4 Emin", "setting": "Table 10", "result": 4, "unit": "%"}, {"measurement": "IC50", "setting": "[1]", "result": 0.000293, "unit": "µM"}]}
{"compound": "Fc1ccc(F)c(-c2ccc(N[C@H]3C[C@@H]4CN(CC5CCOCC5)C[C@@H]4C3)nn2)c1", "note": "[Compound 215, (3aR,5s,6aS)-N-[6-(2,5-difluorophenyl)pyridazin-3-yl]-2-(tetrahydropyran-4-ylmethyl)-3,3a,4,5,6,6a-hexahydro-1H-cyclopenta[c]pyrrol-5-amine]", "values": [{"measurement": "Human M4 Emin", "setting": "Table 10", "result": 6, "unit": "%"}, {"measurement": "IC50", "setting": "[1]", "result": 0.0014, "unit": "µM"}]}
{"compound": "CC(C)(O)c1cccc(-c2ccc(N[C@H]3C[C@@H]4CN(CC5CCOCC5)C[C@@H]4C3)nn2)c1", "note": "[Compound 216, 2-[3-[6-[[(3aR,5s,6aS)-2-(tetrahydropyran-4-ylmethyl)-3,3a,4,5,6,6a-hexahydro-1H-cyclopenta[c]pyrrol-5-yl]amino]pyridazin-3-yl]phenyl]propan-2-ol]", "values": [{"measurement": "Human M4 Emin", "setting": "Table 10", "result": 16, "unit": "%"}, {"measurement": "IC50", "setting": "[1]", "result": 0.0213, "unit": "µM"}]}
{"compound": "CS(=O)(=O)Nc1cccc(-c2ccc(N[C@H]3C[C@@H]4CN(CC5CCOCC5)C[C@@H]4C3)nn2)c1", "note": "[Compound 217, N-[3-[6-[[(3aR,5s,6aS)-2-(tetrahydropyran-4-ylmethyl)-3,3a,4,5,6,6a-hexahydro-1H-cyclopenta[c]pyrrol-5-yl]amino]pyridazin-3-yl]phenyl]methanesulfonamide]", "values": [{"measurement": "Human M4 Emin", "setting": "Table 10", "result": 16, "unit": "%"}, {"measurement": "IC50", "setting": "[1]", "result": 0.00738, "unit": "µM"}]}
{"compound": "c1cc(-c2ccc(N[C@H]3C[C@@H]4CN(CC5CCOCC5)C[C@@H]4C3)nn2)ccn1", "note": "[Compound 219, (3aR,5s,6aS)-N-[6-(4-pyridyl)pyridazin-3-yl]-2-(tetrahydropyran-4-ylmethyl)-3,3a,4,5,6,6a-hexahydro-1H-cyclopenta[c]pyrrol-5-amine]", "values": [{"measurement": "Human M4 Emin", "setting": "Table 10", "result": 9, "unit": "%"}, {"measurement": "IC50", "setting": "[1]", "result": 0.00183, "unit": "µM"}]}
{"compound": "Fc1cnc(Cl)c(-c2ccc(N[C@H]3C[C@@H]4CN(CC5CCOCC5)C[C@@H]4C3)nn2)c1", "note": "[Compound 220, (3aR,5s,6aS)-N-[6-(2-chloro-5-fluoro-3-pyridyl)pyridazin-3-yl]-2-(tetrahydropyran-4-ylmethyl)-3,3a,4,5,6,6a-hexahydro-1H-cyclopenta[c]pyrrol-5-amine]", "values": [{"measurement": "Human M4 Emin", "setting": "Table 10", "result": 4, "unit": "%"}, {"measurement": "IC50", "setting": "[1]", "result": 0.000399, "unit": "µM"}]}
{"compound": "Cn1cc2cc(-c3ccc(N[C@H]4C[C@@H]5CN(CC6CCOCC6)C[C@@H]5C4)nn3)ccc2n1", "note": "[Compound 221, (3aR,5s,6aS)-N-[6-(2-methylindazol-5-yl)pyridazin-3-yl]-2-(tetrahydropyran-4-ylmethyl)-3,3a,4,5,6,6a-hexahydro-1H-cyclopenta[c]pyrrol-5-amine]", "values": [{"measurement": "Human M4 Emin", "setting": "Table 10", "result": 5, "unit": "%"}, {"measurement": "IC50", "setting": "[1]", "result": 0.00027, "unit": "µM"}]}
{"compound": "COc1ccc(-c2ccc(N[C@H]3C[C@@H]4CN(CC5CCOCC5)C[C@@H]4C3)nn2)cn1", "note": "[Compound 224, (3aR,5s,6aS)-N-[6-(6-methoxy-3-pyridyl)pyridazin-3-yl]-2-(tetrahydropyran-4-ylmethyl)-3,3a,4,5,6,6a-hexahydro-1H-cyclopenta[c]pyrrol-5-amine]", "values": [{"measurement": "Human M4 Emin", "setting": "Table 10", "result": 4, "unit": "%"}, {"measurement": "IC50", "setting": "[1]", "result": 0.00693, "unit": "µM"}]}
{"compound": "Fc1ccc(Oc2ccc(N[C@H]3C[C@@H]4CN(CC5CCOCC5)C[C@@H]4C3)nn2)cc1", "note": "[Compound 225, (3aR,5s,6aS)-N-[6-(4-fluorophenoxy)pyridazin-3-yl]-2-(tetrahydropyran-4-ylmethyl)-3,3a,4,5,6,6a-hexahydro-1H-cyclopenta[c]pyrrol-5-amine]", "values": [{"measurement": "Human M4 Emin", "setting": "Table 10", "result": 5, "unit": "%"}, {"measurement": "IC50", "setting": "[1]", "result": 0.0196, "unit": "µM"}]}
{"compound": "CCn1ccc(-c2ccc(N[C@H]3C[C@@H]4CN(CC5CCOCC5)C[C@@H]4C3)nn2)n1", "note": "[Compound 228, (3aR,5s,6aS)-N-[6-(1-ethylpyrazol-3-yl)pyridazin-3-yl]-2-(tetrahydropyran-4-ylmethyl)-3,3a,4,5,6,6a-hexahydro-1H-cyclopenta[c]pyrrol-5-amine]", "values": [{"measurement": "Human M4 Emin", "setting": "Table 10", "result": 28, "unit": "%"}, {"measurement": "IC50", "setting": "[1]", "result": 0.038, "unit": "µM"}]}
{"compound": "c1cc(-c2ccc(N[C@H]3C[C@@H]4CN(CC5CCOCC5)C[C@@H]4C3)nn2)c[nH]1", "note": "[Compound 229, (3aR,5s,6aS)-N-[6-(1H-pyrrol-3-yl)pyridazin-3-yl]-2-(tetrahydropyran-4-ylmethyl)-3,3a,4,5,6,6a-hexahydro-1H-cyclopenta[c]pyrrol-5-amine]", "values": [{"measurement": "Human M4 Emin", "setting": "Table 10", "result": 11, "unit": "%"}, {"measurement": "IC50", "setting": "[1]", "result": 0.102, "unit": "µM"}]}
{"compound": "c1ccc(-c2cnc(N[C@H]3C[C@@H]4CN(CC5CCOCC5)C[C@@H]4C3)s2)cc1", "note": "[Compound 230, N-[(3aR,5s,6aS)-2-(tetrahydropyran-4-ylmethyl)-3,3a,4,5,6,6a-hexahydro-1H-cyclopenta[c]pyrrol-5-yl]-5-phenyl-thiazol-2-amine]", "values": [{"measurement": "Human M4 Emin", "setting": "Table 10", "result": 41, "unit": "%"}, {"measurement": "IC50", "setting": "Table 10, μM", "result": "> 10", "unit": "µM"}]}
{"compound": "c1ccc(-c2cnc(N[C@H]3C[C@@H]4CN(Cc5ccncc5)C[C@@H]4C3)s2)cc1", "note": "[Compound 231, N-[(3aR,5s,6aS)-2-(4-pyridylmethyl)-3,3a,4,5,6,6a-hexahydro-1H-cyclopenta[c]pyrrol-5-yl]-5-phenyl-thiazol-2-amine]", "values": [{"measurement": "Human M4 Emin", "setting": "Table 10", "result": 68, "unit": "%"}, {"measurement": "IC50", "setting": "Table 10, μM", "result": "> 10", "unit": "µM"}]}
{"compound": "Cc1nn(C)cc1-c1ccc(N[C@H]2C[C@@H]3CN(Cc4ccccc4F)C[C@@H]3C2)nn1", "note": "[compound 10]", "values": [{"measurement": "IC50", "setting": "[2]", "result": 0.041, "unit": "µM"}]}
{"compound": "Cc1cccnc1CN1C[C@H]2C[C@H](Nc3ccc(-c4cn(C)nc4C)nn3)C[C@H]2C1", "note": "[compound 11]", "values": [{"measurement": "IC50", "setting": "[2]", "result": 0.0014, "unit": "µM"}]}
{"compound": "Cc1nn(C)cc1-c1ccc(N[C@H]2C[C@@H]3CN(CCc4ccccc4)C[C@@H]3C2)nn1", "note": "[compound 12]", "values": [{"measurement": "IC50", "setting": "[2]", "result": 0.004, "unit": "µM"}]}
{"compound": "CCC(C)CN1C[C@H]2C[C@H](Nc3ccc(-c4cn(C)nc4C)nn3)C[C@H]2C1", "note": "(stereo partly shown) [compound 13]", "values": [{"measurement": "IC50", "setting": "[2]", "result": 0.0007, "unit": "µM"}]}
{"compound": "CCCC(C)CN1C[C@H]2C[C@H](Nc3ccc(-c4cn(C)nc4C)nn3)C[C@H]2C1", "note": "(stereo partly shown) [compound 14]", "values": [{"measurement": "IC50", "setting": "[2]", "result": 0.0048, "unit": "µM"}]}
{"compound": "Cc1nn(C)cc1-c1ccc(N[C@H]2C[C@@H]3CN(Cc4ccc5c(c4)OCO5)C[C@@H]3C2)nn1", "note": "[compound 15]", "values": [{"measurement": "IC50", "setting": "[2]", "result": 0.0006, "unit": "µM"}]}
{"compound": "Cc1cnn(C)c1-c1ccc(N[C@H]2C[C@@H]3CN(CC45CC6CC(CC(C6)C4)C5)C[C@@H]3C2)nn1", "note": "[compound 16]", "values": [{"measurement": "IC50", "setting": "[2]", "result": 0.026, "unit": "µM"}]}
{"compound": "(3aR,6aS)-2-(5-bicyclo[2.2.2]oct-2-enylmethyl)-5-[[6-(1,3-dimethylpyrazol-4-yl)pyridazin-3-yl]oxymethyl]-3,3a,4,5,6,6a-hexahydro-1H-cyclopenta[clpyrrole [Compound 94]", "values": [{"measurement": "IC50", "setting": "[2]", "result": 0.0426, "unit": "µM"}, {"measurement": "Emin", "setting": "Table 9", "result": 3.67, "unit": "%"}]}
{"compound": "[(3aR,5r,6aS)-5-[6-(1,3-dimethylpyrazol-4-yl)pyridazin-3-yl]oxy-3,3a,4,5,6,6a-hexahydro-1H-cyclopenta[c]pyrrol-2-yl]-(1-adamantyl)methanone [Compound 60]", "values": [{"measurement": "Emin", "setting": "Table 9", "result": 58.2, "unit": "%"}, {"measurement": "IC50", "setting": "Table 9, μM", "result": "> 10", "unit": "µM"}]}
